Test results from patent US6492371B2, “Use of cyclic GMP-specific phosphodiesterase inhibitors for treatment of Parkinson's Disease” (priority 2000, dated 2002).
Counter-ions that a name gives are not always drawn.

Assays:
[1] = oral, monotherapy; rapid peripheral metabolism by dopa decarboxylase and COMT; cited from earlier work
[2] = test system: effectiveness of L-dopa and dopaminergic ergot derivatives in PD; conditions: therapy of PD, combination with L-dopa and lisuride; cited from earlier work
[3] = test system: anti-parkinson action of bromocriptine; conditions: patients with PD, concomitant caffeine and bromocriptine; cited from earlier work
Parkinson's symptoms = experiment: Administration of a PDE5 inhibitor compound to a patient suffering from Parkinson's Disease; format: in vivo, human; conditions: one patient with PD administered the PDE5 inhibitor
Description: The PDE5 inhibitor was 5-(2-ethoxy-5-(4-methyl-1-piperazinylsulphonyl)phenyl)-1-methyl-3-n-propyl-1,6-dihydro-7H-pyrazolo[4,3-d]pyrimidin-7-one, otherwise known as sildenafil citrate (Viagra®).

Structure (SMILES): N[C@@H](Cc1ccc(O)c(O)c1)C(=O)O [L-dopa]
- fraction of orally administered L-dopa that penetrates into brain [1]: Less than 1%

Structure (SMILES): COc1ccc(C2CNC(=O)C2)cc1OC1CCCC1 (stereo not shown) [Rolipram, rolipram]
- potentiation of the effect of L-dopa and lisuride [2]: failed to potentiate the effect of L-dopa and lisuride

Structure (SMILES): Cn1c(=O)c2c(ncn2C)n(C)c1=O [caffeine]
- potentiation of the anti-parkinson action of bromocriptine [3]: failed to potentiate the anti-parkinson action of bromocriptine

Structure (SMILES): CCCc1nn(C)c2c(=O)[nH]c(-c3cc(S(=O)(=O)N4CCN(C)CC4)ccc3OCC)nc12 [sildenafil citrate, 5-(2-ethoxy-5-(4-methyl-1-piperazinylsulphonyl)phenyl)-1-methyl-3-n-propyl-1,6-dihydro-7H-pyrazolo[4,3-d]pyrimidin-7-one]
- effect on Parkinson's symptoms noted by the patient (Parkinson's symptoms): an improvement in their Parkinson's symptoms
